Tested on: septic shock patients
Test: Phase IIa clinical trial with nangibotide in septic shock patients: SOFA score evolution
Format: in vivo, human
Description: This was a randomized, double-blind, two-stage, placebo-controlled study. As described in FIG. 7, the study was composed of 2 stages with a similar treatment regimen, in which 0.3, 1.0 or 3.0 mg/kg/h of nangibotide (corresponding to peptide LR12, having an amino acid sequence as set forth in SEQ ID NO: 9, also known as motrem) was tested versus placebo. All patients with a diagnosis of septic shock were considered for study participation. All potential study patients underwent standard care management procedures. Patients with evidence of septic shock according to the Sepsis-3 definition (Singer et al, JAMA 2016) were considered for inclusion (i.e., patients suffering from sepsis and having (i) persisting hypotension requiring vasopressors to maintain their mean arterial pressure ≥65 mm Hg and (ii) a serum lactate level >2 mmol/L (18 mg/dL) despite adequate volume resuscitation).
After screening for eligibility, patients were randomized to one of the treatment arms. Then, they received either a 5 mg/kg loading dose of nangibotide over 15 minutes followed by a continuous intravenous (i.v.) infusion of nangibotide or a matching placebo on top of standard of care. Treatment with study drug was initiated as early as possible, but no later than 24 hours after the onset of septic shock, defined by the start of vasopressor therapy. Patients were treated until 12 (±2) hours after the resolution of their septic shock (defined as vasopressor withdrawal) with a maximum treatment duration of 5 days (120 hours).
Adverse events (AEs) were coded using the MedDRA dictionary version 18.1. Treatment-emergent adverse events (TEAEs) were summarized and listed. Analysis was performed in 49 septic shock patients. The demographic and baseline characteristics were summarized in a descriptive fashion within each population: categorical variables were summarized by contingency tables (frequencies and percentages). sTREM-1 levels at day 1 were also described (mean, standard deviation, standard error, median, quartiles and range, minimum and maximum values). Mortality rates were reported by frequency and percentage. For continuous endpoints, i.e., the sequential organ failure assessment (SOFA), missing data were imputed using LOCF (Last Observation Carry-Forward). For time-to-event analyses, i.e., duration of invasive mechanical ventilation (IMV), duration of continuous renal replacement therapy (CRRT), survival, censored data techniques were utilized. In addition, a sensitivity analysis of time to event data (except survival) was performed using censoring at maximum limit for the corresponding observation period (i.e., either day 28 or day 90). […] The following comparisons were made: each nangibotide dose arm to placebo, all nangibotide doses combined versus placebo, and dose-response using an ordinal trend test. Exploratory composite endpoint: incidence (number and proportion) of patients alive at day 28 and free of vasopressor, free of IMV and free of CRRT were summarized by treatment and compared between treatments with a Fisher's exact test. For pharmacodynamic markers, log transformed data were represented as percentage change from baseline at day 5 or End of Infusion (EOI) if end of infusion was stopped before day 5. […] “All nangibotide” refers to analyses obtained by pooling data from 0.3, 1 and 3 mg/kg/h nangibotide-treated groups.

[1] = patients with low sTREM-1 at baseline (below median 433 pg/mL), Day 3, 3.0 mg/kg/h
[2] = patients with low sTREM-1 at baseline (below median 433 pg/mL), Day 3, all nangibotide doses pooled
[3] = patients with low sTREM-1 at baseline (below median 433 pg/mL), Day 4, 0.3 mg/kg/h
[4] = patients with low sTREM-1 at baseline (below median 433 pg/mL), Day 4, 1.0 mg/kg/h
[5] = patients with low sTREM-1 at baseline (below median 433 pg/mL), Day 4, 3.0 mg/kg/h
[6] = patients with low sTREM-1 at baseline (below median 433 pg/mL), Day 4, all nangibotide doses pooled
[7] = patients with low sTREM-1 at baseline (below median 433 pg/mL), Day 5, 1.0 mg/kg/h
[8] = whole population, Day 1, 0.3 mg/kg/h
[9] = whole population, Day 1, 1.0 mg/kg/h
[10] = whole population, Day 1, 3.0 mg/kg/h
[11] = whole population, Day 1, all nangibotide doses pooled
[12] = whole population, Day 2, 0.3 mg/kg/h
[13] = whole population, Day 2, 1.0 mg/kg/h
[14] = whole population, Day 2, 3.0 mg/kg/h
[15] = whole population, Day 2, all nangibotide doses pooled
[16] = whole population, Day 3, 0.3 mg/kg/h
[17] = whole population, Day 3, 1.0 mg/kg/h
[18] = whole population, Day 3, 3.0 mg/kg/h
[19] = whole population, Day 3, all nangibotide doses pooled
[20] = whole population, Day 4, 0.3 mg/kg/h
[21] = whole population, Day 4, 1.0 mg/kg/h
[22] = whole population, Day 4, 3.0 mg/kg/h
[23] = whole population, Day 4, all nangibotide doses pooled
[24] = whole population, Day 5, 1.0 mg/kg/h

With “nangibotide (LQEEDAGEYGCM; TLT-1 peptide)” the “SOFA score evolution (change versus baseline, LOCF), LSMean (SE)” value [1] was −2.10 (1.35), the “SOFA score, estimated difference (SE) vs. placebo” value [1] was 0.01 (1.69) and the “SOFA score evolution (change versus baseline, LOCF), LSMean (SE)” value [2] was −2.10 (0.67). The “SOFA score, estimated difference (SE) vs. placebo” value [2] was 0.02 (1.23), the “SOFA score evolution (change versus baseline, LOCF), LSMean (SE)” value [3] was −2.70 (0.94) and the “SOFA score, estimated difference (SE) vs. placebo” value [3] was −0.57 (1.32). For the same substance, the “SOFA score evolution (change versus baseline, LOCF), LSMean (SE)” value [4] was −1.79 (1.03), the “SOFA score, estimated difference (SE) vs. placebo” value [4] was 0.34 (1.41) and the “SOFA score evolution (change versus baseline, LOCF), LSMean (SE)” value [5] was −2.62 (1.24). The “SOFA score, estimated difference (SE) vs. placebo” value [5] was −0.49 (1.55), the “SOFA score evolution (change versus baseline, LOCF), LSMean (SE)” value [6] was −2.37 (0.62) and the “SOFA score, estimated difference (SE) vs. placebo” value [6] was −0.24 (1.13). For the same substance, the “SOFA score evolution (change versus baseline, LOCF), LSMean (SE)” value (patients with low sTREM-1 at baseline (below median 433 pg/mL), Day 5, 0.3 mg/kg/h) was −2.71 (1.10), the “SOFA score, estimated difference (SE) vs. placebo” value (patients with low sTREM-1 at baseline (below median 433 pg/mL), Day 5, 0.3 mg/kg/h, 0.3 mg/kg) was −0.71 (1.56) and the “SOFA score, estimated difference (SE) vs. placebo” value (patients with low sTREM-1 at baseline (below median 433 pg/mL), Day 5, 0.3 mg/kg/h, listed as nangibotide, 0.3 mg/kg) was −0.71. For the same substance, the “SOFA score evolution (change versus baseline, LOCF), LSMean (SE)” value [7] was −1.93 (1.21), the “SOFA score, estimated difference (SE) vs. placebo” value [7] was 0.06 (1.65) and the “SOFA score evolution (change versus baseline, LOCF), LSMean (SE)” value (patients with low sTREM-1 at baseline (below median 433 pg/mL), Day 5, 3.0 mg/kg/h) was −1.87 (1.46). For the same substance, the “SOFA score, estimated difference (SE) vs. placebo” value (patients with low sTREM-1 at baseline (below median 433 pg/mL), Day 5, 3.0 mg/kg/h, 3 mg/kg) was 0.12 (−1.82), the “SOFA score, estimated difference (SE) vs. placebo” value (patients with low sTREM-1 at baseline (below median 433 pg/mL), Day 5, 3.0 mg/kg/h, listed as nangibotide, 3 mg/kg) was 0.12 and the “SOFA score evolution (change versus baseline, LOCF), LSMean (SE)” value (patients with low sTREM-1 at baseline (below median 433 pg/mL), Day 5, all nangibotide doses pooled) was −2.17 (0.73). The “SOFA score evolution (change versus baseline, LOCF), LSMean (SE)” value [8] was −0.65 (0.52), the “SOFA score, estimated difference (SE) vs. placebo” value [8] was 0.26 (0.75) and the “SOFA score evolution (change versus baseline, LOCF), LSMean (SE)” value [9] was −0.39 (0.54). For the same substance, the “SOFA score, estimated difference (SE) vs. placebo” value [9] was 0.53 (0.77), the “SOFA score evolution (change versus baseline, LOCF), LSMean (SE)” value [10] was −0.33 (0.54) and the “SOFA score, estimated difference (SE) vs. placebo” value [10] was 0.59 (0.76). The “SOFA score evolution (change versus baseline, LOCF), LSMean (SE)” value [11] was −0.45 (0.31), the “SOFA score, estimated difference (SE) vs. placebo” value [11] was 0.46 (0.62) and the “SOFA score evolution (change versus baseline, LOCF), LSMean (SE)” value [12] was −2.27 (0.63). The “SOFA score, estimated difference (SE) vs. placebo” value [12] was −0.94 (0.91), the “SOFA score evolution (change versus baseline, LOCF), LSMean (SE)” value [13] was −1.97 (0.65) and the “SOFA score, estimated difference (SE) vs. placebo” value [13] was −0.64 (0.92). For the same substance, the “SOFA score evolution (change versus baseline, LOCF), LSMean (SE)” value [14] was −0.91 (0.65), the “SOFA score, estimated difference (SE) vs. placebo” value [14] was 0.42 (0.92) and the “SOFA score evolution (change versus baseline, LOCF), LSMean (SE)” value [15] was −1.72 (0.37). For the same substance, the “SOFA score, estimated difference (SE) vs. placebo” value [15] was −0.38 (0.75), the “SOFA score evolution (change versus baseline, LOCF), LSMean (SE)” value [16] was −2.67 (0.68) and the “SOFA score, estimated difference (SE) vs. placebo” value [16] was −1.42 (0.98). For the same substance, the “SOFA score evolution (change versus baseline, LOCF), LSMean (SE)” value [17] was −1.87 (0.71), the “SOFA score, estimated difference (SE) vs. placebo” value [17] was −0.62 (1.00) and the “SOFA score evolution (change versus baseline, LOCF), LSMean (SE)” value [18] was −0.91 (0.70). The “SOFA score, estimated difference (SE) vs. placebo” value [18] was 0.34 (1.00), the “SOFA score evolution (change versus baseline, LOCF), LSMean (SE)” value [19] was −1.82 (0.40) and the “SOFA score, estimated difference (SE) vs. placebo” value [19] was −0.57 (0.81). The “SOFA score evolution (change versus baseline, LOCF), LSMean (SE)” value [20] was −2.91 (0.67), the “SOFA score, estimated difference (SE) vs. placebo” value [20] was −1.50 (0.96) and the “SOFA score evolution (change versus baseline, LOCF), LSMean (SE)” value [21] was −1.95 (0.70). The “SOFA score, estimated difference (SE) vs. placebo” value [21] was −0.53 (0.98), the “SOFA score evolution (change versus baseline, LOCF), LSMean (SE)” value [22] was −1.16 (0.69) and the “SOFA score, estimated difference (SE) vs. placebo” value [22] was 0.26 (0.98). For the same substance, the “SOFA score evolution (change versus baseline, LOCF), LSMean (SE)” value [23] was −2.00 (0.40), the “SOFA score, estimated difference (SE) vs. placebo” value [23] was −0.59 (0.80) and the “SOFA score evolution (change versus baseline, LOCF), LSMean (SE)” value (whole population, Day 5, 0.3 mg/kg/h) was −2.91 (0.71). The “SOFA score, estimated difference (SE) vs. placebo” value (whole population, Day 5, 0.3 mg/kg/h, 0.3 mg/kg) was −1.66 (1.03), the “SOFA score, estimated difference (SE) vs. placebo” value (whole population, Day 5, 0.3 mg/kg/h, listed as nangibotide, 0.3 mg/kg) was −1.66 and the “SOFA score evolution (change versus baseline, LOCF), LSMean (SE)” value [24] was −2.03 (0.74). The “SOFA score, estimated difference (SE) vs. placebo” value [24] was −0.78 (1.04), the “SOFA score evolution (change versus baseline, LOCF), LSMean (SE)” value (whole population, Day 5, 3.0 mg/kg/h) was −0.90 (0.74) and the “SOFA score, estimated difference (SE) vs. placebo” value (whole population, Day 5, 3.0 mg/kg/h, 3 mg/kg) was 0.34 (1.04). For the same substance, the “SOFA score, estimated difference (SE) vs. placebo” value (whole population, Day 5, 3.0 mg/kg/h, listed as nangibotide, 3 mg/kg) was 0.34, the “SOFA score evolution (change versus baseline, LOCF), LSMean (SE)” value (whole population, Day 5, all nangibotide doses pooled) was −1.95 (0.42) and the “SOFA score decrease during the first 5 days vs. placebo” value (whole population, no statistically significant differences) was “consistent numerical trend in favor of nangibotide”.

— patent publication US12364733B1, “Method for treating septic shock” (Inotrem, priority 2018, dated 2025)
